Data on two compounds can be found in US9155760B2, “Method of prophylaxis of bacterial vaginosis” (STARPHARMA PTY LIMITED, priority 2011, dated 2015).

The subject of assay [1] is Bacteroides ureolyticus. Nature of the assay: Agar dilution MIC assay (anaerobes). It is filed as cell-based. The settings on record: Micromyx Number 4150, 35° C., 48 hours, anaerobic.
In assay [2] the test system is Porphyromonas levii. Kind of assay: Agar dilution MIC assay (anaerobes). It is filed as cell-based. The settings on record: Micromyx Number 3003, 35° C., 48 hours, anaerobic.
The test system of assay [3] is Porphyromonas asaccharolytica. Nature of the assay: Agar dilution MIC assay (anaerobes). It is filed as cell-based. The settings on record: Micromyx Number 3004, 35° C., 48 hours, anaerobic.
Assay [4] has as its system Lactobacillus gasseri. Kind of assay: Agar dilution MIC assay (anaerobes). It is filed as cell-based. The settings on record: Micromyx Number 4148, 35° C., 48 hours, anaerobic.
Assay [5] relates to Bacteroides fragilis 0123 (ATCC 25285). Kind of assay: Agar dilution MIC assay (anaerobes), quality control organism. The class given is cell-based. To be noted: 48 hours, anaerobic.
Assay [6] relates to Lactobacillus crispatus. Kind of assay: Agar dilution MIC assay (anaerobes). The class given is cell-based. To be noted: Micromyx Number 4147, 35° C., 48 hours, anaerobic.
Assay [7] deals with Anaerococcus prevotii. Nature of the assay: Agar dilution MIC assay (anaerobes). It is filed as cell-based. The settings on record: Micromyx Number 4151, 35° C., 48 hours, anaerobic.
In assay [8] the test system is Bacteroides fragilis 3374. Nature of the assay: Agar dilution MIC assay (anaerobes). The class given is cell-based. The settings on record: Micromyx Number 3374, 35° C., 48 hours, anaerobic.
For assay [9], the system named is Lactobacillus jensenii. Nature of the assay: Agar dilution MIC assay (anaerobes). The class given is cell-based. The settings on record: Micromyx Number 4149, 35° C., 48 hours, anaerobic.
In assay [10] the test system is Anaerococcus tetradius. Nature of the assay: Agar dilution MIC assay (anaerobes). The class given is cell-based. The settings on record: Micromyx Number 4152, 35° C., 48 hours, anaerobic.
The test system of assay [11] is Lactobacillus acidophilus. Kind of assay: Agar dilution MIC assay (anaerobes). The settings on record: Micromyx Number 0681, 35° C., 48 hours, anaerobic. It is filed as cell-based.
In assay [12] the test system is Prevotella melaninogenica. Kind of assay: Agar dilution MIC assay (anaerobes). The class given is cell-based. To be noted: Micromyx Number 3005, 35° C., 48 hours, anaerobic.
Assay [13] concerns Lactobacillus casei. Nature of the assay: Agar dilution MIC assay (anaerobes). The class given is cell-based. The settings on record: Micromyx Number 1722, 35° C., 48 hours, anaerobic.
Assay [14] has as its system Mobiluncus. curtisii. Kind of assay: Agar dilution MIC assay (anaerobes). To be noted: Micromyx Number 4145, 35° C., 48 hours, anaerobic. The class given is cell-based.
The test system of assay [15] is Bacteroides ovatus 3503. Kind of assay: Agar dilution MIC assay (anaerobes). It is filed as cell-based. The settings on record: Micromyx Number 3503, 35° C., 48 hours, anaerobic.
Assay [16] has as its system Lactobacillus plantarum. Kind of assay: Agar dilution MIC assay (anaerobes). To be noted: Micromyx Number 2791, 35° C., 48 hours, anaerobic. It is filed as cell-based.
The test system of assay [17] is Peptostreptococcus anaerobius. Nature of the assay: Agar dilution MIC assay (anaerobes). The class given is cell-based. The settings on record: Micromyx Number 3526, 35° C., 48 hours, anaerobic.
For assay [18], the system named is Prevotella intermedia. Kind of assay: Agar dilution MIC assay (anaerobes). The class given is cell-based. The settings on record: Micromyx Number 3002, 35° C., 48 hours, anaerobic.
Assay [19] relates to Mobiluncus mulieris. Nature of the assay: Agar dilution MIC assay (anaerobes). It is filed as cell-based. To be noted: Micromyx Number 4146, 35° C., 48 hours, anaerobic.
The subject of assay [20] is Gardnerella vaginalis. Nature of the assay: Agar dilution MIC assay (anaerobes). It is filed as cell-based. To be noted: Micromyx Number 4153, 35° C., 48 hours, anaerobic.
In assay [21] the test system is B. ovatus 3508. Kind of assay: Agar dilution MIC assay (anaerobes). To be noted: Micromyx Number 3508, 35° C., 48 hours, anaerobic. It is filed as cell-based, Bacteroides ovatus.
The subject of assay [22] is Fusobacterium nucleatum. Kind of assay: Agar dilution MIC assay (anaerobes). It is filed as cell-based. The settings on record: Micromyx Number 1269, 35° C., 48 hours, anaerobic.
Assay [23] deals with Prevotella bivia. Nature of the assay: Agar dilution MIC assay (anaerobes). It is filed as cell-based. The settings on record: Micromyx Number 3447, 35° C., 48 hours, anaerobic.
Where [24] appears, read: Bacteroides ovatus, read-out: MIC.

In brackets after ≈: the same amount, converted by molar mass. Where two headings read alike, the source gives them in different places.

As to `C[C@@H](O)[C@H]1C(=O)N2C(C(=O)O)=C(SCCN=CN)C[C@H]12` [Imipenem, reference compound], the MIC was 0.25 µg/mL (≈ 0.835 µM) in assay [1] (Campylobacter ureolyticus, read-out: MIC); 0.06 µg/mL (≈ 0.2 µM) in [2] (Porphyromonas levii, read-out: MIC); at most 0.03 µg/mL in [3] (Porphyromonas asaccharolytica, read-out: MIC); 0.25 µg/mL (≈ 0.835 µM) in assay [4] (Lactobacillus gasseri, read-out: MIC); 0.12 µg/mL (≈ 0.401 µM) in assay [5] (Bacteroides fragilis, ATCC25285, Micromyx Number 0123, 35° C., read-out: MIC); 0.12 µg/mL (≈ 0.401 µM) in assay [6] (Lactobacillus crispatus, read-out: MIC). Also, the MIC was 0.06 µg/mL (≈ 0.2 µM) in assay [7] (Anaerococcus prevotii, read-out: MIC); 2 µg/mL (≈ 6.68 µM) in assay [8] (Bacteroides fragilis, read-out: MIC); 0.25 µg/mL (≈ 0.835 µM) in [9] (Lactobacillus jensenii, read-out: MIC); at most 0.03 µg/mL in [10] (Anaerococcus tetradius, read-out: MIC); 0.12 µg/mL (≈ 0.401 µM) in assay [11] (Lactobacillus acidophilus, read-out: MIC); at most 0.03 µg/mL in assay [12] (Prevotella melaninogenica, read-out: MIC). Further, the MIC in assay [13] (Lacticaseibacillus casei, read-out: MIC) was 0.5 µg/mL (≈ 1.67 µM); in assay [14] (Mobiluncus curtisii, read-out: MIC), at most 0.03 µg/mL; in [15] (setting [24]), 0.25 µg/mL (≈ 0.835 µM); in [16] (Lactiplantibacillus plantarum, read-out: MIC), 2 µg/mL (≈ 6.68 µM); in [17] (Peptostreptococcus anaerobius, read-out: MIC) it was at most 0.03 µg/mL; in assay [18] (Prevotella intermedia, read-out: MIC), at most 0.03 µg/mL. Also, the MIC in assay [19] (Mobiluncus mulieris, read-out: MIC) was at most 0.03 µg/mL; in assay [20] (Gardnerella vaginalis, read-out: MIC), 0.12 µg/mL (≈ 0.401 µM); in [21] (setting [24]), at most 0.03 µg/mL; in [22] (Fusobacterium nucleatum, read-out: MIC), at most 0.03 µg/mL; in assay [23] (Prevotella bivia, read-out: MIC) it was at most 0.03 µg/mL.
For the compound `CC(=O)COc1cc(S(=O)(=O)O)cc2cc(S(=O)(=O)O)ccc12` [SPL7013], the MIC is over 30000 µg/mL in assay [1]; over 30000 µg/mL in assay [2]; over 30000 µg/mL in [3]; over 30000 µg/mL in [4]; over 30000 µg/mL in assay [5] (Micromyx Number 0123, 35° C.); 10000 µg/mL (≈ 27700 µM) in assay [6]. Also, the MIC in [7], in assay [8], in assay [9], in assay [10], in assay [11] and in [12] was over 30000 µg/mL in each case. In addition, the MIC in [13], in [14], in [15], in [16], in [17] and in assay [18] was over 30000 µg/mL throughout. Besides, the MIC is over 30000 µg/mL in [19]; 5000 µg/mL (≈ 13900 µM) in assay [20]; 30000 µg/mL (≈ 83200 µM) in assay [21]; over 30000 µg/mL in [22]; 30000 µg/mL (≈ 83200 µM) in assay [23].
